The results in this text go back to patent publication EP3981391B1, “ORAL PREPARATION HAVING IMPROVED DISSOLUTION RATE AND DISINTEGRATION PROPERTIES FOR NATURAL SUBSTANCE EXTRACT” (Green Cross WellBeing Corporation, priority 2019, dated 2020).

The nature of this data set: Solubility of processed ginseng extract (ginsenosides Rg3 and Rh2 by HPLC) in solvents and dissolution media. It is filed as physicochemical. How it is done:
Processed ginseng extracts were used as natural product extracts of the present invention, and the processed ginseng extracts were prepared by the methods disclosed in Korean Patent Nos. 1595426 and 1966117. Among these, a processed ginseng extract containing 13 wt% of ginsenoside Rg3 and 7 wt% of ginsenoside Rh2 was used.
To investigate the solubility of the processed ginseng extract of the present invention, isopropanol, ethanol, water, and a pH 1.2 buffer, a pH 4.0 buffer, and a pH 6.8 buffer, which are dissolution media disclosed in the Korean Pharmacopoeia, were used as solvents. After 500 mg of the processed ginseng extract was added to 2 g of each solvent, stirring was performed at 50 rpm and 37°C for 18 hours, thereby obtaining each sample. Thereafter, a filtrate obtained by filtration of each sample through a 0.45-µm polyvinylidene fluoride (PVDF) syringe filter was analyzed by high performance liquid chromatography (HPLC) to investigate the solubility of ginsenosides Rg3 and Rh2 contained in the processed ginseng extract. The results are shown in Table 1 below. • HPLC Conditions were as follows: • Column: C18, 1.8 µm, 2.1x50 mm • Column Temperature: 50°C • Detector: UV 203 nm • Flow rate: 0.6 ml/min • Amount of injection: 2 µl • Run time: About 14 min • Mobile phase: distilled water: acetonitrile =57:43 (v/v) TABLE 1

Where [1] appears, read: Ethanol, 500 mg processed ginseng extract in 2 g solvent, 50 rpm, 37°C, 18 hours.
The mark [2] stands for this setting: Isopropanol, 500 mg processed ginseng extract in 2 g solvent, 50 rpm, 37°C, 18 hours.
[3] abbreviates: Water, 500 mg processed ginseng extract in 2 g solvent, 50 rpm, 37°C, 18 hours.
The mark [4] stands for this setting: pH 1.2 buffer, 500 mg processed ginseng extract in 2 g solvent, 50 rpm, 37°C, 18 hours.
[5] abbreviates: pH 4.0 buffer, 500 mg processed ginseng extract in 2 g solvent, 50 rpm, 37°C, 18 hours.
[6] abbreviates: pH 6.8 buffer, 500 mg processed ginseng extract in 2 g solvent, 50 rpm, 37°C, 18 hours.
[7] abbreviates: in water, a pH 1.2 buffer, or a pH 4.0 buffer.

Regarding `CC(C)=CCC[C@](C)(O)[C@H]1CC[C@]2(C)[C@@H]1[C@H](O)C[C@@H]1[C@@]3(C)CC[C@H](O[C@@H]4O[C@H](CO)[C@@H](O)[C@H](O)[C@H]4O[C@@H]4O[C@H](CO)[C@@H](O)[C@H](O)[C@H]4O)C(C)(C)[C@@H]3CC[C@]12C` [Ginsenoside Rg3 R-form, Ginsenoside Rg3], the solubility is, setting by setting: under setting [1], 5.45 mg/g; under setting [2], 4.72 mg/g; under setting [3], 0.05 mg/g; under setting [4], 0.01 mg/g; under setting [5], 0.05 mg/g; under setting [6], 0.31 mg/g.

For the compound `CC(C)=CCC[C@](C)(O)[C@H]1CC[C@]2(C)[C@@H]1[C@H](O)C[C@@H]1[C@@]3(C)CC[C@H](O[C@@H]4O[C@H](CO)[C@@H](O)[C@H](O)[C@H]4O[C@@H]4O[C@H](CO)[C@@H](O)[C@H](O)[C@H]4O)C(C)(C)[C@@H]3CC[C@]12C` [Ginsenoside Rg3 S-form, Ginsenoside Rg3], the solubility reads like this: under setting [1], 7.52 mg/g; under setting [2], 7.43 mg/g; under setting [3], 0.21 mg/g; under setting [4], 0.01 mg/g; under setting [5], 0.28 mg/g; under setting [6], 1.23 mg/g.

As to `CC(C)=CCC[C@](C)(O)[C@H]1CC[C@]2(C)[C@@H]1[C@H](O)C[C@@H]1[C@@]3(C)CC[C@H](O[C@@H]4O[C@H](CO)[C@@H](O)[C@H](O)[C@H]4O)C(C)(C)[C@@H]3CC[C@]12C` [Ginsenoside Rh2 R-form, Ginsenoside Rh2], the solubility is 2.55 mg/g under setting [1]; 2.47 mg/g under setting [2]; 0.00 mg/g under setting [3]; 0.00 mg/g under setting [4]; 0.00 mg/g under setting [5]; 0.09 mg/g under setting [6].

Take `CC(C)=CCC[C@](C)(O)[C@H]1CC[C@]2(C)[C@@H]1[C@H](O)C[C@@H]1[C@@]3(C)CC[C@H](O[C@@H]4O[C@H](CO)[C@@H](O)[C@H](O)[C@H]4O)C(C)(C)[C@@H]3CC[C@]12C` [Ginsenoside Rh2 S-form, Ginsenoside Rh2]: the solubility under setting [1] was determined as 3.96 mg/g; the solubility under setting [2] is 3.99 mg/g; the solubility under setting [3] came out at 0.10 mg/g; the solubility under setting [4] came to 0.00 mg/g; the solubility under setting [5] is 0.13 mg/g; the solubility under setting [6] is listed as 0.60 mg/g.

Turning to `CC(C)=CCC[C@](C)(O)[C@H]1CC[C@]2(C)[C@@H]1[C@H](O)C[C@@H]1[C@@]3(C)CC[C@H](O[C@@H]4O[C@H](CO)[C@@H](O)[C@H](O)[C@H]4O[C@@H]4O[C@H](CO)[C@@H](O)[C@H](O)[C@H]4O)C(C)(C)[C@@H]3CC[C@]12C` [ginsenoside Rg3], under setting [7], the solubility entry is listed as “less than 0.3 mg/g”.

Regarding `CC(C)=CCC[C@](C)(O)[C@H]1CC[C@]2(C)[C@@H]1[C@H](O)C[C@@H]1[C@@]3(C)CC[C@H](O[C@@H]4O[C@H](CO)[C@@H](O)[C@H](O)[C@H]4O)C(C)(C)[C@@H]3CC[C@]12C` [ginsenoside Rh2], the solubility entry under setting [7] is “less than 0.3 mg/g”.
